{"source": "paper PMC10269622", "about": "“Blapstin, a Diapause-Specific Peptide-Like Peptide from the Chinese Medicinal Beetle Blaps rhynchopetera, Has Antifungal Function” (Microbiology Spectrum, 2023)", "key": {"[1]": {"test_system": "trypsin", "experiment": "Effect of protease on antifungal activity", "format": "in vitro ADME", "settings": "0.5 μL of 10 mg/mL trypsin with 20 μL of 225 μM peptide, 37°C, 1 h; read-out paper disk assay against C. albicans", "protocol": "(§1) (iii) Effects of protease. In terms of the influence of protease on the antifungal activity of blapstin, trypsin and chymotrypsin were selected for the experiment, and 0.5 μL of a 10-mg/mL concentration of proteases (including trypsin and chymotrypsin) and (20 μL(225 μM) of blapstin were mixed and incubated at 37°C for 1 h ([64]). Colistin E was used as the positive control, and 1.5% NaCl was used as the negative control. Then, these samples were transferred to the paper disks in the YM solid medium with C. albicans and incubated at 37°C for 18 h for the assay of antifungal activity."}, "[2]": {"test_system": "chymotrypsin", "experiment": "Effect of protease on antifungal activity", "format": "in vitro ADME", "settings": "0.5 μL of 10 mg/mL chymotrypsin with 20 μL of 225 μM peptide, 37°C, 1 h; read-out paper disk assay against C. albicans", "protocol": "as §1"}, "[3]": {"test_system": "T. rubrum", "experiment": "Cryo-SEM membrane morphology", "format": "cell-based, Trichophyton rubrum", "settings": "1× MIC"}, "[4]": {"test_system": "established biofilms of C. albicans ATCC 10231", "experiment": "Biofilm eradication assay (crystal violet)", "format": "cell-based, Candida albicans", "settings": "24 h preformed biofilm, 0.5× to 8× MIC, 37°C, absorbance at 600 nm", "protocol": "First, 100 μL of C. albicans ATCC 10231 suspension (1 × 10^6 CFU/mL) was added to each well of a sterile 96-well plate. The plate was incubated at 37°C for 24 h to make the biofilm adhere to the walls and washed three times with PBS. Next, 100 μL of serial dilutions of blapstin (0.5×, 1×, 2×, 4×, and 8× MIC) prepared using YM medium was added to the plate, followed by incubation at 37°C for 24 h. Fluconazole at 10 μM and clotrimazole at 10 μΜ were used as a positive control, and sterile 0.9% NaCl was used as a negative control. After incubation, the liquid in the plate was discarded and washed three times with PBS, followed by the addition of 1% crystal violet solution to each well and incubation at room temperature for 10 min. Finally, the plate was washed three times with PBS, and 100 μL of 95% ethanol was added per well. The percentage of biofilm removal was estimated by measuring the absorbance at 600 nm."}, "[5]": {"test_system": "C. albicans ATCC 10231 biofilm", "experiment": "CLSM live/dead (FDA/PI) staining of biofilm", "format": "cell-based, Candida albicans", "settings": "8× MIC, among 0.5× to 8× MIC; 48 h, 37°C", "protocol": "Blapstin at various concentrations (500 μL) was added to 500 μL of the prepared fungal suspension of C. albicans ATCC 10231 (2 × 10^5 CFU/mL) in a sterile 24-well plate to ensure that the final concentration of blapstin ranged from 0.5× to 8× MIC; the plate was incubated for 48 h at 37°C, followed by washing with PBS two to three times to remove unadhered fungal cells. Then, 10 μg/mL of FDA (Solarbio, Beijing, China) and 5 μg/mL of PI (Solarbio, Beijing, China) were added for costaining in the dark for 30 min and washed with PBS twice, as described previously ([68]). Subsequently, the plates were observed using a CLSM (FV 1000; Olympus, Germany). The FDA and PI were excited at 488 nm and 555 nm, respectively, for imaging. Cell viability was assessed based on fluorescence staining; living cells hydrolyze FDA, resulting in the accumulation of green fluorescence, whereas dead cells are stained red by PI. Fluconazole at 10 μΜ and clotrimazole at 10 μΜ were used as a positive control, and sterile 0.9% NaCl was used as a negative control. Green or red fluorescence intensity was calculated using Image J."}}, "note": "Bridge positions count the residues as written; N and C are the ends. Ends that are not written are not given here.", "data": [{"sequence": "VRVGPCDQVCSRTNPEKDECCRAHGHSGHSSCYGGRMNCYG (disulfide 6-21, 10-32, 20-39 (inferred)) [Blapstin]", "values": [{"measurement": "Sensitivity of antifungal activity to protease", "setting": "[1]", "value": "insensitive"}, {"measurement": "Sensitivity of antifungal activity to protease", "setting": "[2]", "value": "insensitive"}, {"measurement": "Membrane morphology under cryo-SEM", "setting": "[3]", "value": "membrane shrinkage and disruption of the plasma membrane"}, {"measurement": "Eradication of established biofilms of C. albicans", "setting": "[4]", "value": "disrupted established biofilms"}, {"measurement": "Effect on biofilm activity (FDA-labeled live / PI-labeled dead cells, CLSM)", "setting": "[5]", "value": "greatest effect"}]}]}
